The results in this text go back to EP4810052A2, “HCRHR2 SELECTIVE POLYPEPTIDES” (Gubra A/S, priority 2023, dated 2026).

The target of test [1] is T1, hCRHR2 (Homo sapiens, UniProt Q13324).
T1 sequence (Q13324 1-411): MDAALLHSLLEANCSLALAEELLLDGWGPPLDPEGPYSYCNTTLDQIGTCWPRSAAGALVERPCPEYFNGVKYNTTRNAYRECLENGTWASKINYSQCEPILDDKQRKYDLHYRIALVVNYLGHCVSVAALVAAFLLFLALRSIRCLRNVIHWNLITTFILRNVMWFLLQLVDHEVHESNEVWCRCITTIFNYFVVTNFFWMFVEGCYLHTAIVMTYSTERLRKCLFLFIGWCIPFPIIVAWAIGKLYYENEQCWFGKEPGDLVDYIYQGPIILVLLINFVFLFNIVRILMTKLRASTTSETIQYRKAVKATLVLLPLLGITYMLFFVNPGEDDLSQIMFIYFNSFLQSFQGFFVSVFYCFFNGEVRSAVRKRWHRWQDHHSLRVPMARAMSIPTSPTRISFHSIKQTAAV
Briefly: HTRF cAMP assay, determination of hCRHR2 potency (peptide libraries 5 conc., purified peptides 11 conc.). Type of test: cell-based. In short, it runs like this:
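EC50 derived by variable-slope sigmoid regression of FRET-based cAMP data; cellular cAMP displaced d2-labelled tracer from cryptate anti-cAMP antibody. Stable human CRHR2 CHO-K1 suspension cells, revived from frozen stocks just before the run.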
Background: Time-resolved FRET reads energy transfer from a long-lived donor to a nearby acceptor.

Test [2] deals with T2, hCRHR1 (Homo sapiens, UniProt P34998).
T2 sequence (P34998 24-415): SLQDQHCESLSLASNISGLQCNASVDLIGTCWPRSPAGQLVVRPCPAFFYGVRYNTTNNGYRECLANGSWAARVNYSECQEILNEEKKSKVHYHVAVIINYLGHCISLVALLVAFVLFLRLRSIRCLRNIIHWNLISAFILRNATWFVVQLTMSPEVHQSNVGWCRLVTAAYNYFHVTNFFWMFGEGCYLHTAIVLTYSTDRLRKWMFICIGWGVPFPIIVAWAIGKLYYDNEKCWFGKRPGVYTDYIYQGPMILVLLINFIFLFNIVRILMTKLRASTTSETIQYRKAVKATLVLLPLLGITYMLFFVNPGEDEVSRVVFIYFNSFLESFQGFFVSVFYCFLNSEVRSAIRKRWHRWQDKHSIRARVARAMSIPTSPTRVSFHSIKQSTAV
Description: HTRF cAMP assay, determination of hCRHR1 potency (peptide libraries 5 conc., purified peptides 11 conc.). Type of test: cell-based. In outline: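 Cellular cAMP was read by time-resolved FRET between d2-labelled cAMP and cryptate anti-cAMP antibody. The cells were freshly thawed suspension CHO-K1 cells stably expressing human CRHR1.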

[3] abbreviates: library peptides, matched molecular pairs L vs Nle in position X^38, read-out: Potency hCRHR2 pEC50 (converted).
[4] abbreviates: library peptides, matched molecular pairs L vs Nle in position X^38, read-out: Potency hCRHR1 pEC50 (converted).
The mark [5] stands for this setting: Table 4, library peptides having X^38 = Nle, read-out: hCRHR2 pEC50 (converted).
[6] abbreviates: Table 4, library peptides having X^38 = Nle, read-out: hCRHR1 pEC50 (converted).

Like-named read-outs stand apart in the source and are kept apart here. Starred links: 1 amine or outer side, 2 acyl side, 3 side chain; linkers in the order of their positions; H or OH if unused. Non-standard residues stand in square brackets, D forms with d. Residues, ends and D or L forms follow the SMILES beside them. Groups on a side chain read outwards from the residue. *: point of attachment. C20 diacid = O=C(O)CCCCCCCCCCCCCCCCCCC(=O)*; γGlu = O=C(O)[C@H](CCC(=O)[*:2])N[*:1]; NMeI = CC[C@H](C)[C@H](NC)C(=O)O; Nle = CCCC[C@H](N)C(=O)O; AEEA = NCCOCCOCC(=O)O; Aib = CC(C)(N)C(=O)O

With `CCCC[C@H](NC(=O)[C@@H](NC(=O)[C@H](CCC(=O)O)NC(=O)[C@H](C)NC(=O)[C@H](CC(N)=O)NC(=O)[C@@H](NC(=O)[C@H](CCCCNC(=O)COCCOCCNC(=O)COCCOCCNC(=O)CC[C@H](NC(=O)CC[C@H](NC(=O)CCCCCCCCCCCCCCCCCCC(=O)O)C(=O)O)C(=O)O)NC(=O)[C@H](C)NC(=O)[C@H](CCC(N)=O)NC(=O)[C@H](CCC(=O)O)NC(=O)[C@H](CCCNC(=N)N)NC(=O)[C@H](CC(C)C)NC(=O)[C@H](CCC(N)=O)NC(=O)[C@H](CCCNC(=N)N)NC(=O)[C@H](C)NC(=O)[C@H](CCCNC(=N)N)NC(=O)[C@H](C)NC(=O)[C@H](CCC(N)=O)NC(=O)[C@H](CCC(=O)O)NC(=O)[C@H](CC(C)C)NC(=O)[C@H](CC(C)C)NC(=O)[C@@H](NC(=O)[C@H](CCC(N)=O)NC(=O)[C@H](CC(C)C)NC(=O)[C@H](CC(C)C)NC(=O)CNC(=O)[C@@H](NC(=O)[C@@H]1CCCN1C(=O)[C@@H](NC(=O)[C@H](CC(=O)O)NC(=O)[C@H](CC(C)C)NC(=O)[C@H](CO)NC(=O)[C@H](CC(C)C)NC(=O)[C@@H](NC(=O)[C@@H](N)[C@@H](C)CC)C(C)C)C(C)C)[C@@H](C)CC)[C@@H](C)CC)[C@@H](C)O)[C@@H](C)CC)C(=O)N[C@@H](C)C(=O)N[C@@H](CCC(=O)O)C(=O)N[C@H](C(N)=O)C(C)C` [compound 73] (H-IVLSLDVPIGLLQILLEQARARQLREQAK([AEEA-AEEA-γGlu-γGlu-C20 diacid])TNAEI[Nle]AEV-NH2), the EC50 in test [1] (setting [3]) was 0.2 nM; in test [2] (setting [4]), 3.98 nM.
Take `CCCC[C@H](NC(=O)[C@@H](NC(=O)[C@H](CCC(=O)O)NC(=O)C(C)(C)NC(=O)[C@H](CC(N)=O)NC(=O)[C@@H](NC(=O)[C@H](CCCCNC(=O)COCCOCCNC(=O)COCCOCCNC(=O)CC[C@H](NC(=O)CC[C@H](NC(=O)CCCCCCCCCCCCCCCCCCC(=O)O)C(=O)O)C(=O)O)NC(=O)[C@H](C)NC(=O)[C@H](CCC(N)=O)NC(=O)[C@H](CCC(=O)O)NC(=O)[C@H](CCCNC(=N)N)NC(=O)[C@H](C)NC(=O)[C@H](C)NC(=O)[C@H](CCCNC(=N)N)NC(=O)[C@H](C)NC(=O)[C@H](CCCNC(=N)N)NC(=O)[C@H](C)NC(=O)[C@H](CCC(N)=O)NC(=O)[C@H](CC(C)C)NC(=O)[C@H](CC(C)C)NC(=O)[C@H](CC(C)C)NC(=O)[C@@H](NC(=O)[C@H](CCC(N)=O)NC(=O)[C@H](CC(C)C)NC(=O)[C@H](CC(C)C)NC(=O)CNC(=O)[C@@H](NC(=O)[C@@H]1CCCN1C(=O)[C@@H](NC(=O)[C@H](CC(=O)O)NC(=O)[C@H](CC(C)C)NC(=O)[C@H](CO)NC(=O)[C@H](CC(C)C)NC(=O)[C@@H](NC(=O)[C@@H](NC)[C@@H](C)CC)C(C)C)C(C)C)[C@@H](C)CC)[C@@H](C)CC)[C@@H](C)O)[C@@H](C)CC)C(=O)N[C@@H](C)C(=O)N[C@@H](CCC(=O)O)C(=O)N[C@H](C(N)=O)C(C)C` [compound 229] (H-[NMeI]VLSLDVPIGLLQILLLQARARAAREQAK([AEEA-AEEA-γGlu-γGlu-C20 diacid])TN[Aib]EI[Nle]AEV-NH2): the figures for the EC50 in test [1] (setting [5]) and in test [2] (setting [6]) were 0.0794 nM and 6310 nM, respectively.
For the compound `CCCC[C@H](NC(=O)[C@@H](NC(=O)[C@H](CCC(=O)O)NC(=O)[C@H](C)NC(=O)[C@H](CC(N)=O)NC(=O)C(C)(C)NC(=O)[C@H](CCCCNC(=O)COCCOCCNC(=O)COCCOCCNC(=O)CC[C@H](NC(=O)CC[C@H](NC(=O)CCCCCCCCCCCCCCCCCCC(=O)O)C(=O)O)C(=O)O)NC(=O)[C@H](C)NC(=O)[C@H](CCC(N)=O)NC(=O)[C@H](CCC(=O)O)NC(=O)[C@H](CCCNC(=N)N)NC(=O)[C@H](C)NC(=O)[C@H](C)NC(=O)[C@H](CCCNC(=N)N)NC(=O)[C@H](C)NC(=O)[C@H](CCCNC(=N)N)NC(=O)[C@H](C)NC(=O)[C@H](CCC(N)=O)NC(=O)[C@H](Cc1c[nH]cn1)NC(=O)[C@H](CC(C)C)NC(=O)[C@H](CC(C)C)NC(=O)[C@@H](NC(=O)[C@H](CCC(N)=O)NC(=O)[C@H](CC(C)C)NC(=O)[C@H](CC(C)C)NC(=O)CNC(=O)[C@@H](NC(=O)[C@@H]1CCCN1C(=O)[C@@H](NC(=O)[C@H](CC(=O)O)NC(=O)[C@H](CC(C)C)NC(=O)[C@H](CO)NC(=O)[C@H](CC(C)C)NC(=O)[C@@H](NC(=O)[C@@H](NC)[C@@H](C)CC)C(C)C)C(C)C)[C@@H](C)CC)[C@@H](C)CC)[C@@H](C)CC)C(=O)N[C@@H](C)C(=O)N[C@@H](CCC(=O)O)C(=O)N[C@H](C(N)=O)C(C)C` [compound 126] (H-[NMeI]VLSLDVPIGLLQILLHQARARAAREQAK([AEEA-AEEA-γGlu-γGlu-C20 diacid])[Aib]NAEI[Nle]AEV-NH2), the EC50 in test [1] (setting [5]) was 0.01 nM; in test [2] (setting [6]), 794 nM.
On to `CC[C@H](C)[C@H](N)C(=O)N[C@H](C(=O)N[C@@H](CC(C)C)C(=O)N[C@@H](CO)C(=O)N[C@@H](CC(C)C)C(=O)N[C@@H](CC(=O)O)C(=O)N[C@H](C(=O)N1CCC[C@H]1C(=O)N[C@H](C(=O)NCC(=O)N[C@@H](CC(C)C)C(=O)N[C@@H](CCCCNC(=O)COCCOCCNC(=O)COCCOCCNC(=O)CC[C@H](NC(=O)CC[C@H](NC(=O)CCCCCCCCCCCCCCCCCCC(=O)O)C(=O)O)C(=O)O)C(=O)N[C@@H](CCC(N)=O)C(=O)N[C@H](C(=O)N[C@@H](CC(C)C)C(=O)N[C@@H](CC(C)C)C(=O)N[C@@H](CCC(=O)O)C(=O)N[C@@H](CCC(N)=O)C(=O)N[C@@H](C)C(=O)N[C@@H](CCCNC(=N)N)C(=O)N[C@@H](C)C(=O)N[C@@H](CCCNC(=N)N)C(=O)N[C@@H](C)C(=O)N[C@@H](C)C(=O)N[C@@H](CCCNC(=N)N)C(=O)N[C@@H](CCC(=O)O)C(=O)N[C@@H](CCC(N)=O)C(=O)N[C@@H](C)C(=O)N[C@H](C(=O)N[C@H](C(=O)N[C@@H](CC(N)=O)C(=O)N[C@@H](C)C(=O)N[C@@H](CCC(=O)O)C(=O)N[C@H](C(=O)N[C@@H](CC(C)C)C(=O)N[C@@H](C)C(=O)N[C@@H](CCC(=O)O)C(=O)N[C@H](C(N)=O)C(C)C)[C@@H](C)CC)[C@@H](C)O)[C@@H](C)O)[C@@H](C)CC)[C@@H](C)CC)C(C)C)C(C)C` [SEQ ID NO: 261] (H-IVLSLDVPIGLK([AEEA-AEEA-γGlu-γGlu-C20 diacid])QILLEQARARAAREQATTNAEILAEV-NH2), for which the “Selectivity ratio (hCRHR1/ hCRHR2)” value in test [1] (hCRHR1-EC50/hCRHR2-EC50) is given as greater than 208. In addition, the EC50 in test [1] (purified peptides, CHO-K1 cells stably expressing hCRHR2, cAMP HTRF, read-out: hCRHR2 EC50) was 24 nM; in test [2] (purified peptides, CHO-K1 cells stably expressing hCRHR1, cAMP HTRF, read-out: hCRHR1 EC50), greater than 5000 nM.
On to `CC[C@H](C)[C@H](N)C(=O)N[C@H](C(=O)N[C@@H](CC(C)C)C(=O)N[C@@H](CO)C(=O)N[C@@H](CC(C)C)C(=O)N[C@@H](CC(=O)O)C(=O)N[C@H](C(=O)N1CCC[C@H]1C(=O)N[C@H](C(=O)NCC(=O)N[C@@H](CC(C)C)C(=O)N[C@@H](CC(C)C)C(=O)N[C@@H](CCC(N)=O)C(=O)N[C@H](C(=O)N[C@@H](CC(C)C)C(=O)N[C@@H](CC(C)C)C(=O)N[C@@H](CCC(=O)O)C(=O)N[C@@H](CCC(N)=O)C(=O)N[C@@H](C)C(=O)N[C@@H](CCCNC(=N)N)C(=O)N[C@@H](C)C(=O)N[C@@H](CCCNC(=N)N)C(=O)N[C@@H](CCC(N)=O)C(=O)N[C@@H](CC(C)C)C(=O)N[C@@H](CCCNC(=N)N)C(=O)N[C@@H](CCC(=O)O)C(=O)N[C@@H](CCC(N)=O)C(=O)N[C@@H](C)C(=O)N[C@@H](CCCCNC(=O)COCCOCCNC(=O)COCCOCCNC(=O)CC[C@H](NC(=O)CC[C@H](NC(=O)CCCCCCCCCCCCCCCCCCC(=O)O)C(=O)O)C(=O)O)C(=O)N[C@H](C(=O)N[C@@H](CC(N)=O)C(=O)N[C@@H](C)C(=O)N[C@@H](CCC(=O)O)C(=O)N[C@H](C(=O)N[C@@H](CC(C)C)C(=O)N[C@@H](C)C(=O)N[C@@H](CCC(=O)O)C(=O)N[C@H](C(N)=O)C(C)C)[C@@H](C)CC)[C@@H](C)O)[C@@H](C)CC)[C@@H](C)CC)C(C)C)C(C)C` [compound 72] (H-IVLSLDVPIGLLQILLEQARARQLREQAK([AEEA-AEEA-γGlu-γGlu-C20 diacid])TNAEILAEV-NH2), for which the figures for the EC50 in test [1] (setting [3]) and in test [2] (setting [4]) were 0.316 nM and 251 nM, respectively.
